In one assay the target is B-Raf V600E (Homo sapiens (Human), UniProt P15056, V600E). Description: B-Raf V600E kinase biochemical activity assay (AlphaScreen, biotin-MEK1 substrate). Particulars: 100 μM ATP. The method, then:
Assays for biochemical and cell based activity are known in the art, for example, as described in PCT publication WO 2007/002433, the disclosure of which is hereby incorporated by reference as it relates to such assays. For example, the biochemical activity IC50 values are determined with respect to inhibition of B-Raf V600E kinase activity or p-Erk kinase activity, where inhibition of phosphorylation of a peptide substrate is measured as a function of compound concentration. Compounds to be tested are diluted in dimethyl sulfoxide to a concentration of 0.1 mM. These are serially diluted 15 μL into 30 μL of dimethyl sulfoxide seven times in 96 well plates for a total of 8 dilution points, and for each dilution point 1 μL is added to a well of an assay plate. Plates are prepared such that each well in a 384 well plate contains 1 μL of compound in 10 μL volume with 0.1 ng Raf enzyme (i.e. any of B-Raf, c-Raf-1 or B-Raf V600E, Upstate Biotechnology or prepared by methods known to one of skill in the art), 50 mM HEPES, pH 7.0, 50 mM NaCl, 2 mM MgCl2, 1 mM MnCl2, 0.01% Tween-20, 1 mM DTT, and 100 nM biotin-MEK1 as substrate. The reaction is started with addition of 10 μL of 200 μM ATP (i.e. final 100 μM ATP). After incubation of the kinase reaction for 45 minutes at room temperature, 5 μL/well of Stop Solution is added (25 mM Hepes pH 7.5, 100 mM EDTA, 0.01% BSA with donor beads (Streptavidin coated beads, Perkin Elmer), acceptor beads (Protein A coated, Perkin Elmer), and anti phosphor MEK1/2 antibody (CellSignal), each at final concentration 10 μg/mL). The plates are incubated for 3 hours at room temperature and read on Envision reader (Perkin Elmer). Phosphorylation of Mek1 results in binding of the anti-phosphor-MEK1/2antibody and association of the donor and acceptor beads such that signal correlates with kinase activity. The signal vs. compound concentration is used to determine the IC50.
(In general: In Alpha technology, singlet oxygen from a donor bead excites a nearby acceptor bead.)

Assay [1] concerns COLO205 colon adenocarcinoma cells (B-Raf V600E mutation). As to the kind of experiment: COLO205 cell growth inhibition (ATPlite). The class given is cell-based. Particulars: Homo sapiens, COLO 205, 72 h, 3 days. The method, then: Compounds are assessed in a variety of cell based assays.
On day 1, cells are counted, then centrifuged in a conical tube for 5 minutes at 1000 rpm.
On day 2, compound at a maximum concentration of 5 mM is serially diluted 1:3 (e.g. 10 μL with 30 μL dimethyl sulfoxide) for a total of 8 point titration with DMSO as a control. A 1 μL aliquot of each dilution point and control is added to 249 μL growth media and 50 μL is added to a well containing cells, providing 10 μM compound at the maximum concentration point. The cells are incubated for 3 days at 37° C. in 5% CO2.
ATPlite is added 25 μL to each well, shake for 2 minutes, and the cells are incubated at room temperature for 10 minutes, then luminescence is read on Safire reader. The measured luminescence correlates directly with cell number, such that the reading as a function of compound concentration is used to determine the IC50 value.
For orientation: Cellular ATP, detected with luciferase, serves as a proxy for viable cell number.

As a reminder, the IC50 is the concentration that inhibits the measured activity by half. A low value points to higher potency.

Chain of B-Raf V600E (P15056 whole entry V600E): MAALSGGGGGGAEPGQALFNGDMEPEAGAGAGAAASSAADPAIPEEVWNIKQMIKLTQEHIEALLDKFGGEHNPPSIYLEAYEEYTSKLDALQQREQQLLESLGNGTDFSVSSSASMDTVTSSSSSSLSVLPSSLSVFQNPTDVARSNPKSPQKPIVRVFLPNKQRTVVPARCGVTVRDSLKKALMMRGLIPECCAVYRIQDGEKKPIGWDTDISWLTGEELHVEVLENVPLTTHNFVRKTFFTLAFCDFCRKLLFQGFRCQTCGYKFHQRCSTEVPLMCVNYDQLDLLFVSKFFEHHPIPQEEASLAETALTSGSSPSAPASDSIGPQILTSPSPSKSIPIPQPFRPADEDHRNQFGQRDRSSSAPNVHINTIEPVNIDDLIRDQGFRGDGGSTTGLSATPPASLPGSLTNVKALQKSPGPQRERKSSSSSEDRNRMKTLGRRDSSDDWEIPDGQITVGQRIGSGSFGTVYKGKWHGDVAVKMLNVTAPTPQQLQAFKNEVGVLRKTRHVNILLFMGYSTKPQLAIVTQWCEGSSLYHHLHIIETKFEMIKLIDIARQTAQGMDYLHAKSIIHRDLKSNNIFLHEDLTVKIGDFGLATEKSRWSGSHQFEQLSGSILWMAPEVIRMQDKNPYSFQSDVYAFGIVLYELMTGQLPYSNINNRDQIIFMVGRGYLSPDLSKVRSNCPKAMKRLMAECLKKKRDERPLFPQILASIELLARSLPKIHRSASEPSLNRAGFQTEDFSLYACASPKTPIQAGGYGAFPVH

On to `O=C(c1c(F)ccc(NS(=O)(=O)N2CCCC2)c1F)c1c[nH]c2ncc(F)c(NCC3CC3)c12` [Compound P-0016, N-[3-[4-(cyclopropylmethylamino)-5-fluoro-1H-pyrrolo[2,3-b]pyridine-3-carbonyl]-2,4-difluoro-phenyl]pyrrolidine-1-sulfonamide], for which the IC50 against B-Raf V600E was less than 0.1 µM; in assay [1] it was less than 1 µM. The matching figures for `COCCS(=O)(=O)Nc1cccc(C(=O)c2c[nH]c3ncc(-c4cnc(OC)nc4)cc23)c1F` [Compound P-0065, N-[2-fluoro-3-[5-(2-methoxypyrimidin-5-yl)-1H-pyrrolo[2,3-b]pyridine-3-carbonyl]phenyl]-2-methoxy-ethanesulfonamide]: less than 0.1 µM and more than 1 µM. `CC(C)CN(C)S(=O)(=O)Nc1cccc(C(=O)c2c[nH]c3ncc(I)cc23)c1F` [Compound P-0070, 3-[2-fluoro-3-[[isobutyl(methyl)sulfamoyl]amino]benzoyl]-5-iodo-1H-pyrrolo[2,3-b]pyridine]: in assay [1], the IC50 was more than 1 µM. For the compound `CC(C)NS(=O)(=O)Nc1cccc(C(=O)c2c[nH]c3ncc(I)cc23)c1F` [Compound P-0071, [2-fluoro-3-(isopropylsulfamoylamino)phenyl]-(5-iodo-1H-pyrrolo[2,3-b]pyridin-3-yl)methanone], the figures for the IC50 (against B-Raf V600E; in assay [1]) were more than 0.1 µM and more than 1 µM, respectively. The matching figures for `COc1ncc(-c2cnc3[nH]cc(C(=O)c4cccc(NS(=O)(=O)N(C)CC(C)C)c4F)c3c2)cn1` [Compound P-0072, 3-[2-fluoro-3-[[isobutyl(methyl)sulfamoyl]amino]benzoyl]-5-(2-methoxypyrimidin-5-yl)-1H-pyrrolo[2,3-b]pyridine]: more than 0.1 µM and more than 1 µM. The matching figures for `COCCN(C)S(=O)(=O)Nc1cccc(C(=O)c2c[nH]c3ncc(-c4cnc(OC)nc4)cc23)c1F` [Compound P-0073, 3-[2-fluoro-3-[[2-methoxyethyl(methyl)sulfamoyl]amino]benzoyl]-5-(2-methoxypyrimidin-5-yl)-1H-pyrrolo[2,3-b]pyridine]: more than 0.1 µM and more than 1 µM.

In turn, `CCC(C)S(=O)(=O)Nc1cccc(C(=O)c2c[nH]c3ncc(-c4cnc(C5CC5)nc4)cc23)c1F` (stereo not shown) [Compound P-0228, N-[3-[5-(2-cyclopropylpyrimidin-5-yl)-1H-pyrrolo[2,3-b]pyridine-3-carbonyl]-2-fluoro-phenyl]butane-2-sulfonamide] had an IC50 in assay [1] of less than 1 µM. On the same count and under the same terms, in the case of `CN(C)S(=O)(=O)Nc1ccc(F)c(C(=O)c2c[nH]c3ncc(-c4ccc(C5(C#N)CC5)cc4)cc23)c1F` [Compound P-0237, 5-[4-(1-cyanocyclopropyl)phenyl]-3-[3-(dimethylsulfamoylamino)-2,6-difluoro-benzoyl]-1H-pyrrolo[2,3-b]pyridine] it was less than 1 µM; in that of `CCN(C)S(=O)(=O)Nc1ccc(F)c(C(=O)c2c[nH]c3ncc(-c4ccc(C5(C#N)CC5)cc4)cc23)c1F` [Compound P-0239, 5-[4-(1-cyanocyclopropyl)phenyl]-3-[3-[[ethyl(methyl)sulfamoyl]amino]-2,6-difluoro-benzoyl]-1H-pyrrolo[2,3-b]pyridine], less than 1 µM. For the compound `N#CC1(c2ccc(-c3cnc4[nH]cc(C(=O)c5c(F)ccc(NS(=O)(=O)N6CCCC6)c5F)c4c3)cc2)CC1` [Compound P-0248, N-[3-[5-[4-(1-cyanocyclopropyl)phenyl]-1H-pyrrolo[2,3-b]pyridine-3-carbonyl]-2,4-difluoro-phenyl]pyrrolidine-1-sulfonamide], the IC50 in assay [1] is less than 1 µM.

At B-Raf V600E, `COc1ncc(-c2cnc3[nH]cc(C(=O)c4c(F)ccc(NS(=O)(=O)N5CCCC5)c4F)c3c2)s1` [Compound P-0270, N-[2,4-difluoro-3-[5-(2-methoxythiazol-5-yl)-1H-pyrrolo[2,3-b]pyridine-3-carbonyl]phenyl]pyrrolidine-1-sulfonamide] gave an IC50 of less than 0.1 µM. On B-Raf V600E, `CNC1CCN(S(=O)(=O)Nc2cccc(C(=O)c3c[nH]c4ncc(-c5cnc(C6CC6)nc5)cc34)c2F)C1` (stereo not shown) [Compound P-0272, N-[3-[5-(2-cyclopropylpyrimidin-5-yl)-1H-pyrrolo[2,3-b]pyridine-3-carbonyl]-2-fluoro-phenyl]-3-(methylamino)pyrrolidine-1-sulfonamide] returned an IC50 of more than 0.1 µM.

`O=C(c1c(F)ccc(NS(=O)(=O)N2CCCC2)c1F)c1c[nH]c2ncc(-c3ccncc3)cc12` [Compound P-0273, N-[2,4-difluoro-3-[5-(4-pyridyl)-1H-pyrrolo[2,3-b]pyridine-3-carbonyl]phenyl]pyrrolidine-1-sulfonamide]: the IC50 in assay [1] is less than 1 µM. Same read-out and setting: in the case of `Nc1nccc(-c2cnc3[nH]cc(C(=O)c4c(F)ccc(NS(=O)(=O)N5CCCC5)c4F)c3c2)n1` [Compound P-0280, N-[3-[5-(2-aminopyrimidin-4-yl)-1H-pyrrolo[2,3-b]pyridine-3-carbonyl]-2,4-difluoro-phenyl]pyrrolidine-1-sulfonamide] it was less than 1 µM.

`O=C(c1c(F)ccc(NS(=O)(=O)N2CCCC2)c1F)c1c[nH]c2ncc(-c3ccnc(N4CCOCC4)c3)cc12` [Compound P-0284, N-[2,4-difluoro-3-[5-(2-morpholino-4-pyridyl)-1H-pyrrolo[2,3-b]pyridine-3-carbonyl]phenyl]pyrrolidine-1-sulfonamide]: the IC50 in assay [1] is less than 1 µM. At B-Raf V600E, `O=C(c1c(F)ccc(NS(=O)(=O)N2CCCC2)c1F)c1c[nH]c2ncc(-c3ccnc(OC4CCC4)c3)cc12` [Compound P-0286, N-[3-[5-[2-(cyclobutoxy)-4-pyridyl]-1H-pyrrolo[2,3-b]pyridine-3-carbonyl]-2,4-difluoro-phenyl]pyrrolidine-1-sulfonamide] yielded an IC50 of less than 0.1 µM.

Regarding `COC(=O)C(C)S(=O)(=O)Nc1cccc(C(=O)c2c[nH]c3ncc(-c4cnc(C5CC5)nc4)cc23)c1F` (stereo not shown) [Compound P-0291, methyl 2-[[3-[5-(2-cyclopropylpyrimidin-5-yl)-1H-pyrrolo[2,3-b]pyridine-3-carbonyl]-2-fluoro-phenyl]sulfamoyl]propanoate], the IC50 on B-Raf V600E is more than 0.1 µM. `CCN(C)S(=O)(=O)Nc1ccc(F)c(C(=O)c2c[nH]c3ncc(-c4cnc(N(C)C)nc4)cc23)c1F` [Compound P-0292, 5-[2-(dimethylamino)pyrimidin-5-yl]-3-[3-[[ethyl(methyl)sulfamoyl]amino]-2,6-difluoro-benzoyl]-1H-pyrrolo[2,3-b]pyridine] came in with an IC50 in assay [1] of less than 1 µM. Regarding `O=C(c1c(F)ccc(NS(=O)(=O)N2CCCC2)c1F)c1c[nH]c2ncc(-c3cc(C(F)(F)F)ncn3)cc12` [Compound P-0294, N-[2,4-difluoro-3-[5-[6-(trifluoromethyl)pyrimidin-4-yl]-1H-pyrrolo[2,3-b]pyridine-3-carbonyl]phenyl]pyrrolidine-1-sulfonamide], the IC50 on B-Raf V600E is less than 0.1 µM. On the same count and under the same terms, in the case of `CCN(C)S(=O)(=O)Nc1ccc(F)c(C(=O)c2c[nH]c3ncc(-c4cccc(N(C)C)c4)cc23)c1F` [Compound P-0302, 5-[3-(dimethylamino)phenyl]-3-[3-[[ethyl(methyl)sulfamoyl]amino]-2,6-difluoro-benzoyl]-1H-pyrrolo[2,3-b]pyridine] it was less than 0.1 µM; in that of `CCN(C)S(=O)(=O)Nc1ccc(F)c(C(=O)c2c[nH]c3ncc(-c4ccc(C(=O)NC5CC5)nc4)cc23)c1F` [Compound P-0312, N-cyclopropyl-5-[3-[3-[[ethyl(methyl)sulfamoyl]amino]-2,6-difluoro-benzoyl]-1H-pyrrolo[2,3-b]pyridin-5-yl]pyridine-2-carboxamide], less than 0.1 µM; in that of `CN1CCN(c2cc(-c3cnc4[nH]cc(C(=O)c5c(F)ccc(NS(=O)(=O)N6CCCC6)c5F)c4c3)ncn2)CC1` [Compound P-0319, N-[2,4-difluoro-3-[5-[6-(4-methylpiperazin-1-yl)pyrimidin-4-yl]-1H-pyrrolo[2,3-b]pyridine-3-carbonyl]phenyl]pyrrolidine-1-sulfonamide], less than 0.1 µM.

Compound `C[C@H]1CCN(S(=O)(=O)Nc2ccc(F)c(C(=O)c3c[nH]c4ncc(-c5cnc(C6CC6)nc5)cc34)c2F)C1` [Compound P-0320, (3S)—N-[3-[5-(2-cyclopropylpyrimidin-5-yl)-1H-pyrrolo[2,3-b]pyridine-3-carbonyl]-2,4-difluoro-phenyl]-3-methyl-pyrrolidine-1-sulfonamide] showed an IC50 against B-Raf V600E of more than 0.1 µM.

(Values after patent US20230277534A1 (Plexxikon Inc., priority 2011, published 2023).)
